Results published in ChEMBL document CHEMBL3994622, “Design and synthesis of new RAF kinase-inhibiting antiproliferative quinoline derivatives. Part 2: Diarylurea derivatives” (Eur J Med Chem, 2017).

How the values were obtained:
HT-29 = test: Growth inhibition of human HT-29 cells assessed as cell growth at 0.005 uM incubated for 48 hrs by sulforhodamine B assay relative to control; type: functional; conditions: HT-29, 48 h, read-out: Activity
SK-MEL-2 = test: Growth inhibition of human SK-MEL-2 cells assessed as cell growth at 0.005 uM incubated for 48 hrs by sulforhodamine B assay relative to control; type: functional; conditions: SK-MEL-2, 48 h, read-out: Activity
IGROV-1 = test: Growth inhibition of human IGROV1 cells assessed as cell growth at 0.005 uM incubated for 48 hrs by sulforhodamine B assay relative to control; type: functional; conditions: IGROV-1, 48 h, read-out: Activity
DU-145 [1] = test: Growth inhibition of human DU145 cells assessed as cell growth at 0.005 uM incubated for 48 hrs by sulforhodamine B assay relative to control; type: functional; conditions: DU-145, 48 h, read-out: Activity
T47D [2] = test: Growth inhibition of human T47D cells assessed as cell growth at 0.005 uM incubated for 48 hrs by sulforhodamine B assay relative to control; type: functional; conditions: read-out: Activity
HOP-92 [3] = test: Growth inhibition of human HOP92 cells assessed as cell growth at 0.05 uM incubated for 48 hrs by sulforhodamine B assay relative to control; type: functional; conditions: HOP-92, 48 h, read-out: Activity
SF-295 = test: Growth inhibition of human SF295 cells assessed as cell growth at 0.05 uM incubated for 48 hrs by sulforhodamine B assay relative to control; type: functional; conditions: SF-295, 48 h, read-out: Activity
SF-539 [4] = test: Growth inhibition of human SF539 cells assessed as cell growth at 0.05 uM incubated for 48 hrs by sulforhodamine B assay relative to control; type: functional; conditions: SF-539, 48 h, read-out: Activity
LOX IMVI [5] = test: Growth inhibition of human LOXIMVI cells assessed as cell growth at 0.05 uM incubated for 48 hrs by sulforhodamine B assay relative to control; type: functional; conditions: read-out: Activity
ACHN = test: Growth inhibition of human ACHN cells assessed as cell growth at 0.05 uM incubated for 48 hrs by sulforhodamine B assay relative to control; type: functional; conditions: read-out: Activity
HOP-92 [6] = test: Growth inhibition of human HOP92 cells assessed as cell growth at 0.5 uM incubated for 48 hrs by sulforhodamine B assay relative to control; type: functional; conditions: HOP-92, 48 h, read-out: Activity
COLO 205 = test: Growth inhibition of human COLO205 cells assessed as cell growth at 0.5 uM incubated for 48 hrs by sulforhodamine B assay relative to control; type: functional; conditions: COLO 205, 48 h, read-out: Activity
HCT-15 = test: Growth inhibition of human HCT15 cells assessed as cell growth at 0.5 uM incubated for 48 hrs by sulforhodamine B assay relative to control; type: functional; conditions: HCT-15, 48 h, read-out: Activity
SK-MEL-5 = test: Growth inhibition of human SK-MEL-5 cells assessed as cell growth at 0.5 uM incubated for 48 hrs by sulforhodamine B assay relative to control; type: functional; conditions: SK-MEL-5, 48 h, read-out: Activity
SN12C = test: Growth inhibition of human SN12C cells assessed as cell growth at 0.5 uM incubated for 48 hrs by sulforhodamine B assay relative to control; type: functional; conditions: read-out: Activity
DU-145 [7] = test: Growth inhibition of human DU145 cells assessed as cell growth at 0.5 uM incubated for 48 hrs by sulforhodamine B assay relative to control; type: functional; conditions: DU-145, 48 h, read-out: Activity
BT-549 = test: Growth inhibition of human BT549 cells assessed as cell growth at 0.5 uM incubated for 48 hrs by sulforhodamine B assay relative to control; type: functional; conditions: BT-549, 48 h, read-out: Activity
T47D [8] = test: Growth inhibition of human T47D cells assessed as cell growth at 0.5 uM incubated for 48 hrs by sulforhodamine B assay relative to control; type: functional; conditions: read-out: Activity
NCI-H522 = test: Growth inhibition of human NCI-H522 cells assessed as cell growth at 5 uM incubated for 48 hrs by sulforhodamine B assay relative to control; type: functional; conditions: NCI-H522, 48 h, read-out: Activity
SW-620 = test: Growth inhibition of human SW620 cells assessed as cell growth at 5 uM incubated for 48 hrs by sulforhodamine B assay relative to control; type: functional; conditions: SW-620, 48 h, read-out: Activity
SF-539 [9] = test: Growth inhibition of human SF539 cells assessed as cell growth at 5 uM incubated for 48 hrs by sulforhodamine B assay relative to control; type: functional; conditions: SF-539, 48 h, read-out: Activity
Malme-3M = test: Growth inhibition of human MALME-3M cells assessed as cell growth at 5 uM incubated for 48 hrs by sulforhodamine B assay relative to control; type: functional; conditions: read-out: Activity
M14 = test: Growth inhibition of human M14 cells assessed as cell growth at 5 uM incubated for 48 hrs by sulforhodamine B assay relative to control; type: functional; conditions: M14, 48 h, read-out: Activity
OVCAR-3 = test: Growth inhibition of human OVCAR3 cells assessed as cell growth at 5 uM incubated for 48 hrs by sulforhodamine B assay relative to control; type: functional; conditions: OVCAR-3, 48 h, read-out: Activity
OVCAR-4 = test: Growth inhibition of human OVCAR4 cells assessed as cell growth at 5 uM incubated for 48 hrs by sulforhodamine B assay relative to control; type: functional; conditions: OVCAR-4, 48 h, read-out: Activity
CAKI-1 = test: Growth inhibition of human Caki1 cells assessed as cell growth at 5 uM incubated for 48 hrs by sulforhodamine B assay relative to control; type: functional; conditions: CAKI-1, 48 h, read-out: Activity
MCF7 = test: Growth inhibition of human MCF7 cells assessed as cell growth at 5 uM incubated for 48 hrs by sulforhodamine B assay relative to control; type: functional; conditions: MCF7, 48 h, read-out: Activity
SK-OV-3 = test: Growth inhibition of human SKOV3 cells assessed as cell growth at 50 uM incubated for 48 hrs by sulforhodamine B assay relative to control; type: functional; conditions: SK-OV-3, 48 h, read-out: Activity
786-0 = test: Growth inhibition of human 786-0 cells assessed as cell growth at 50 uM incubated for 48 hrs by sulforhodamine B assay relative to control; type: functional; conditions: 786-0, 48 h, read-out: Activity
Hs-578T = test: Growth inhibition of human Hs 578T cells assessed as cell growth at 50 uM incubated for 48 hrs by sulforhodamine B assay relative to control; type: functional; conditions: read-out: Activity
K562 = test: Growth inhibition of human K562 cells assessed as cell growth at 100 uM incubated for 48 hrs by sulforhodamine B assay relative to control; type: functional; conditions: K562, 48 h, read-out: Activity
[10] = target: Vascular endothelial growth factor receptor 2 (Homo sapiens) (UniProt P35968); test: Inhibition of human KDR at 10 uM using poly[Glu:Tyr] (4:1) as substrate in presence of [33P]ATP by Hotspot assay relative to control
Sequence of Vascular endothelial growth factor receptor 2 (Homo sapiens) (P35968 whole entry): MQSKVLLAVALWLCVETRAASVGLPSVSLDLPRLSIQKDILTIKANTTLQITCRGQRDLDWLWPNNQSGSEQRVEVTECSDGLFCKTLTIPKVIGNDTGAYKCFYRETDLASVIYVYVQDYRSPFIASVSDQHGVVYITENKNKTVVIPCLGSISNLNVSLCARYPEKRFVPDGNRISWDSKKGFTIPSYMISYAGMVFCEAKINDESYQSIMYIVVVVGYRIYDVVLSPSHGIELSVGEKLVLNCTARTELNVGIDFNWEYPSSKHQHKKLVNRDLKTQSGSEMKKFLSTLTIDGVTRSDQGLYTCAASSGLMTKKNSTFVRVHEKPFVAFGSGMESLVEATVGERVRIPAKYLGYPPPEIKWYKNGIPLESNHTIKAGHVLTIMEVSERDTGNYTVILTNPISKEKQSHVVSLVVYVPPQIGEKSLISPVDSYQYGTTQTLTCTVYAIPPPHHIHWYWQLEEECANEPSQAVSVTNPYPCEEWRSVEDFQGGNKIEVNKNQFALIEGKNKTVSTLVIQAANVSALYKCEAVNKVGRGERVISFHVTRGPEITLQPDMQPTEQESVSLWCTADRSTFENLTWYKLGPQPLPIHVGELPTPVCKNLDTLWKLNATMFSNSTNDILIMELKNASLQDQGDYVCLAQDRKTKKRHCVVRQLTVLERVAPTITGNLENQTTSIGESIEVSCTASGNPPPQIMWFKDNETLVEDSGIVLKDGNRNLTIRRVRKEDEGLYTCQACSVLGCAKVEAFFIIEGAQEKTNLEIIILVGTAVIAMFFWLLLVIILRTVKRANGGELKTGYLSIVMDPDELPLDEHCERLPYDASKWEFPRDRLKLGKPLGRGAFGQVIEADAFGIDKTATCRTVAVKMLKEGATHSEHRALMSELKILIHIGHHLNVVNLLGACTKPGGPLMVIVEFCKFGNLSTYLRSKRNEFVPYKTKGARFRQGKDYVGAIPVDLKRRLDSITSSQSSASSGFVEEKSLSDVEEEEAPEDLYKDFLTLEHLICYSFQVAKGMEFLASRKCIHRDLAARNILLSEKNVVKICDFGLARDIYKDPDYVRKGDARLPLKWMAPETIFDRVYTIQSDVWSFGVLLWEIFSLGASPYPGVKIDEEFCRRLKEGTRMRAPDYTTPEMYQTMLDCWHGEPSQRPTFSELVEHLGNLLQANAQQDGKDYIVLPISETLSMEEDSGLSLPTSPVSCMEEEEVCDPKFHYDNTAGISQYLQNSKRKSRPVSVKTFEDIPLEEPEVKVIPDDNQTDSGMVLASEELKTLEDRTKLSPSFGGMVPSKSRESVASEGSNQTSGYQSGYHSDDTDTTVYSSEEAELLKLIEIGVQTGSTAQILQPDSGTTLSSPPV

LOX IMVI [11] = test: Growth inhibition of human LOXIMVI cells assessed as cell growth at 0.03 uM incubated for 48 hrs by sulforhodamine B assay relative to control; type: functional; conditions: read-out: Activity
EKVX = test: Growth inhibition of human EKVX cells assessed as cell growth at 3 uM incubated for 48 hrs by sulforhodamine B assay relative to control; type: functional; conditions: read-out: Activity

Question: `COc1cc2cc(Oc3ccc(NC(=O)Nc4cccc(C(F)(F)F)c4)cc3)c(C)nc2cc1OC` was tested. Which growth at 0.005 µM (HT-29) did it give?
Answer: 100%

Question: And the growth at 0.005 µM (SK-MEL-2)?
Answer: 102%

Question: What about the growth at 0.005 µM (IGROV-1) of the same compound?
Answer: 101%

Question: What about the growth at 0.005 µM (DU-145 [1]) of the same compound?
Answer: 103%

Question: What about the growth at 0.005 µM (T47D [2]) of the same compound?
Answer: 90%

Question: What about the growth at 0.05 µM (HOP-92 [3]) of the same compound?
Answer: 96%

Question: What about the growth at 0.05 µM (SF-295) of the same compound?
Answer: 91%

Question: What about the growth at 0.05 µM (SF-539 [4]) of the same compound?
Answer: 96%

Question: What about the growth at 0.05 µM (LOX IMVI [5]) of the same compound?
Answer: 96%

Question: What about the growth at 0.05 µM (ACHN) of the same compound?
Answer: 99%

Question: What about the growth at 0.5 µM (HOP-92 [6]) of the same compound?
Answer: 90%

Question: What about the growth at 0.5 µM (COLO 205) of the same compound?
Answer: 102%

Question: And the growth at 0.5 µM (HCT-15)?
Answer: 92%

Question: What about the growth at 0.5 µM (SK-MEL-5) of the same compound?
Answer: 93%

Question: And the growth at 0.5 µM (SN12C)?
Answer: 95%

Question: What about the growth at 0.5 µM (DU-145 [7]) of the same compound?
Answer: 104%

Question: And the growth at 0.5 µM (BT-549)?
Answer: 86%

Question: What about the growth at 0.5 µM (T47D [8]) of the same compound?
Answer: 94%

Question: And the growth at 5 µM (NCI-H522)?
Answer: -4%

Question: What about the growth at 5 µM (SW-620) of the same compound?
Answer: 20%

Question: And the growth at 5 µM (SF-539 [9])?
Answer: 26%

Question: What about the growth at 5 µM (Malme-3M) of the same compound?
Answer: -1%

Question: And the growth at 5 µM (M14)?
Answer: 14%

Question: What about the growth at 5 µM (OVCAR-3) of the same compound?
Answer: 15%

Question: And the growth at 5 µM (OVCAR-4)?
Answer: 25%

Question: What about the growth at 5 µM (CAKI-1) of the same compound?
Answer: -7%

Question: And the growth at 5 µM (MCF7)?
Answer: 3%

Question: What about the growth at 50 µM (SK-OV-3) of the same compound?
Answer: -37%

Question: What about the growth at 50 µM (786-0) of the same compound?
Answer: -33%

Question: And the growth at 50 µM (Hs-578T)?
Answer: -41%

Question: With `COc1cc2cc(Oc3ccc(NC(=O)Nc4cc(C(F)(F)F)cc(C(F)(F)F)c4)cc3)c(C)nc2cc1OC` as the compound, how does the growth at 100 µM (K562) read?
Answer: -61%

Question: What does the source list for `COc1cc2cc(Oc3ccc(NC(=O)Nc4ccc(Cl)c(C(F)(F)F)c4)cc3)c(C)nc2cc1OC`?
Answer: inhibition [10]: 0.83%; growth at 0.03 µM (LOX IMVI [11]): 99%; growth at 3 µM (EKVX): 5%
